This assay concerns P388. Put plainly: Cytotoxicity against mouse P388 cells. The assay is classed as functional, cell-based.

≈ marks a conversion by molar mass, not a printed value.

As a reminder, the IC50 is the concentration that inhibits the measured activity by half. `C[S@+]([O-])C[C@](C)(O)[C@H]1OC(=O)C=C2[C@@]13O[C@@H]3[C@H]1OC(=O)[C@@]3(C)C=CC[C@@]2(C)[C@@H]13` (stereo in doubt; 2) registered an IC50 of 0.23 µg/mL (≈ 0.563 µM).

In turn, `C[S@+]([O-])C[C@](C)(O)[C@H]1OC(=O)C=C2[C@@]13O[C@@H]3[C@H]1OC(=O)[C@@]3(C)C=CC[C@@]2(C)[C@@H]13` (stereo in doubt; 1) registered an IC50 of 0.52 µg/mL (≈ 1.27 µM).

(Values after ChEMBL document CHEMBL1159348, “S(R)-podolactone D, a new sulfoxide-containing norditerpene dilactone from Podocarpus macrophyllus var. maki” (J Nat Prod, 2003).)
